Laboratory results reported in patent US20190308933A1, “PHENYLAMIDINES AND THE USE THEREOF AS FUNGICIDES” (priority 2016, published 2019).
Read-outs that look alike come from different tables or passages of the source.

Tests used:
[1] = Log P measurement by HPLC on reversed phase columns (EEC directive 79/831 Annex V.A8); assay type: physicochemical; details: reversed phase HPLC column, LC-UV
Method: [table] Measurement of Log P values was performed according to EEC directive 79/831 Annex V.A8 by HPLC (High Performance Liquid Chromatography) on reversed phase columns with the following methods: If more than one Log P value is available within the same method, all the values are given and separated by “+”. […] Lambda-max-values were determined using UV-spectra from 200 nm to 400 nm and the peak values of the chromatographic signals.

[2] = system: Phakopsora pachyrhizi; test: In vivo preventive test on Phakopsora (soybeans); design: species or system Phakopsora pachyrhizi (soybean rust) on soybeans; details: 168 h, young soybean plants sprayed, 10 ppm of active ingredient, evaluated 7 days after inoculation, 0% = untreated control, 100% = no disease, read-out: efficacy
Method: Example: In Vivo Preventive Test on Phakopsora Test (Soybeans)
To produce a suitable preparation of active compound, 1 part by weight of active compound is mixed with the stated amounts of solvent and emulsifier, and the concentrate is diluted with water to the desired concentration.
To test for preventive activity, young plants are sprayed with the preparation of active compound at the stated rate of application. After the spray coating has dried on, the plants are inoculated with an aqueous spore suspension of the causal agent of soybean rust (Phakopsora pachyrhizi) and stay for 24 h without light in an incubation cabinet at approximately 24° C. and a relative atmospheric humidity of 95%.
The plants remain in the incubation cabinet at approximately 24° C. and a relative atmospheric humidity of approximately 80% and a day/night interval of 12 h.
The test is evaluated 7 days after the inoculation. 0% means an efficacy which corresponds to that of the untreated control, while an efficacy of 100% means that no disease is observed.

[3] = acidic range, 0.1% formic acid in water and acetonitrile as eluent (linear gradient 10% to 95% acetonitrile), read-out: LogP [a]
[4] = neutral range, 0.001 molar ammonium acetate solution in water and acetonitrile as eluent (linear gradient 10% to 95% acetonitrile), read-out: LogP [b]

Row | chromatographic logP [1, 3] | chromatographic logP [1, 4] | Compound | pest or weed control at 10 ppm [2]
1 | 1.63 | 4.92 | CCN(C)C=Nc1cc(Cl)c(Cc2cccc(F)c2F)cc1C [Example 24, N′-[5-chloro-4-[(2,3-difluorophenyl)methyl]-2-methylphenyl]-N-ethyl-N-methylmethanimidamide] | 90 to 100%
2 | 1.81 | 5.55 | CCN(C)C=Nc1cc(Cl)c(Cc2ccccc2Cl)cc1C [Example 30, N′-[5-chloro-4-[(2-chlorophenyl)methyl]-2-methylphenyl]-N-ethyl-N-methylmethanimidamide] | 90 to 100%
